Patent US10577315B2, “Compositions and methods for treatment of prostate carcinoma” (Pellficure Pharmaceuticals, Inc., priority 2014, dated 2020)

Key:
[1] = system: human breast cancer SKBR-3 cells; assay: Dose response of 1,4-naphthoquinone analogs in human breast cancer cells SKBR-3 (WST-1, 24 h); assay type: cell-based
Experimental: (§1) 100 microliters of human breast cancer SKBR-3 cells were plated at a density of 8000 cells/well in 96-well plates (triplicates) in growing medium containing 10% Fetal Bovine Serum, penicillin/streptomycin, and glutamine. The next day, increasing concentrations of a 1,4-naphthoquinone analog (diluted from 10 mM DMSO stock solutions) were added. DMSO used as solvent for all analogs, was kept constant through the 96-well plates. The control consisted of DMSO alone. The cells were subsequently incubated for 24 hours at 37° C. and 5% CO2 in normal cell growth conditions. Cell viability was assessed by adding 9 μL/well of WST-1 reagent (Clontech), which measured mitochondrial activity of live cells. […] The incubation time was 3 hours at 37° C. Optical density of the cell samples was measured at 460 nm, by using plate reader Spectra Max 250 (Molecular Devices). The drug was determined to be cytotoxic when OD values show an inverse correlation with analog concentrations.

[2] = system: human fibrosarcoma HT1080 cells; assay: Dose response of 1,4-naphthoquinone analogs in human fibrosarcoma cells HT1080 (WST-1, 24 h); assay type: cell-based
Experimental: as §1, with “fibrosarcoma HT1080” for “breast cancer SKBR-3”

[3] = system: PTEN-P2/GFP prostate cancer cells; assay: Effect of 1,4-naphthoquinone analogs on PTEN-P2/GFP cell proliferation (WST-1 cell viability, 24 h); assay type: cell-based; conditions: Mus musculus, WST-1, medium with 10% FBS and DHT, read-out: PTEN-P2/GFP cell proliferation, percent of control
Method in brief: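 PTEN-P2/GFP cells, 8000/well, in medium with 10% FBS and 10^−8M DHT, dosed next day with increasing analog concentrations (constant DMSO) for 24 h at 37 °C, 5% CO2. Viability read by WST-1 after 3 h at 37 °C, OD at 460 nm.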

[4] = system: H2B-GFP-PTEN-P2 tumor cells; assay: In vivo effect combined with castration in the pseudo-orthotopic chamber model for prostate cancer; design: species or system mouse; conditions: orally once a day in sesame seed oil, equimolar to 1 mg/kg plumbagin, castrated male nu/nu mice
Excerpt: A syngeneic pseudo-orthotopic in vivo model was developed to study the early steps of prostate cancer. Chambers are surgically placed into the dorsal skinfold of male mice. Briefly, male mice (25-30 g body weight) are anesthetized and placed on a heating pad. Two symmetrical titanium frames are implanted into the dorsal skinfold. A circular layer is excised from one of the skin layers. The underlying muscle and subcutaneous tissues are covered with a glass coverslip incorporated in one of the frames. After a recovery period of 2-3 days, stoma tissue and tumor cells are carefully placed in the chamber.
Male Nude mice (25-35 g body weight) are anesthetized (7.3 mg ketamine hydrochloride and 2.3 mg xylazine/100 g body weight, i.p.) and placed on a heating pad. Two symmetrical titanium frames are implanted into a dorsal skinfold, so as to sandwich the extended double layer of skin. […]
Liquid overlay plates are generated using 1% Agarose melted in DMEM that is added to round-bottom 96-well plates (50 ul/well). […] Viability is determined using Trypan blue. […]. The size of the implanted spheroid can be determined precisely to minimize variations between animals. […]
Fluorescence microscopy is performed using a Mikron Instrument Microscope equipped with epi-illuminator and video-triggered stroboscopic illumination from a xenon arc (MV-7600, EG&G). […]

SMILES: COc1ccc(OC2=CC(=O)c3ccccc3C2=O)cc1 [Analog F05, 2-(4-methoxyphenoxy)-1,4-naphthoquinone]
- human SKBR-3 cell proliferation, percent of control ([1]; 1.2 μM): 151.35% of control
- human SKBR-3 cell proliferation, percent of control ([1]; 2.5 μM): 144.41% of control
- human SKBR-3 cell proliferation, percent of control ([1]; 5 μM): 120.15% of control
- human SKBR-3 cell proliferation, percent of control ([1]; 7.5 μM): 94.14% of control
- human SKBR-3 cell proliferation, percent of control ([1]; 10 μM): 17.05% of control
- human SKBR-3 cell proliferation, percent of control ([1]; 15 μM): 1.91% of control
- human SKBR-3 cell proliferation, percent of control ([1]; 20 μM): 2.99% of control
- proliferation of human fibrosarcoma HT1080 cells, percent of control ([2]; 1.2 μM): 81.04% of control
- proliferation of human fibrosarcoma HT1080 cells, percent of control ([2]; 2.5 μM): 76.27% of control
- proliferation of human fibrosarcoma HT1080 cells, percent of control ([2]; 5 μM): 67.81% of control
- proliferation of human fibrosarcoma HT1080 cells, percent of control ([2]; 7.5 μM): 67.85% of control
- proliferation of human fibrosarcoma HT1080 cells, percent of control ([2]; 10 μM): 66.08% of control
- proliferation of human fibrosarcoma HT1080 cells, percent of control ([2]; 15 μM): 55.00% of control
- proliferation of human fibrosarcoma HT1080 cells, percent of control ([2]; 20 μM): 56.04% of control
- activity at 1.2 µM [3]: 102%
- activity at 2.5 µM [3]: 113%
- activity at 5 µM [3]: 56.1%
- activity at 7.5 µM [3]: 8.83%
- activity at 10 µM [3]: 1.32%
- activity at 15 µM [3]: 0.77%
- activity at 20 µM [3]: 3.41%

SMILES: O=C1C=C(Oc2ccc(OCc3ccccc3)cc2)C(=O)c2ccccc21 [Analog F06, 2-(4-(benzyloxy)phenoxy)-1,4-naphthoquinone]
- human SKBR-3 cell proliferation, percent of control ([1]; 1.2 μM): 152.32% of control
- human SKBR-3 cell proliferation, percent of control ([1]; 2.5 μM): 147.42% of control
- human SKBR-3 cell proliferation, percent of control ([1]; 5 μM): 134.16% of control
- human SKBR-3 cell proliferation, percent of control ([1]; 7.5 μM): 151.41% of control
- human SKBR-3 cell proliferation, percent of control ([1]; 10 μM): 136.66% of control
- human SKBR-3 cell proliferation, percent of control ([1]; 15 μM): 125.96% of control
- human SKBR-3 cell proliferation, percent of control ([1]; 20 μM): 21.95% of control
- proliferation of human fibrosarcoma HT1080 cells, percent of control ([2]; 1.2 μM): 82.93% of control
- proliferation of human fibrosarcoma HT1080 cells, percent of control ([2]; 2.5 μM): 81.12% of control
- proliferation of human fibrosarcoma HT1080 cells, percent of control ([2]; 5 μM): 80.24% of control
- proliferation of human fibrosarcoma HT1080 cells, percent of control ([2]; 7.5 μM): 81.24% of control
- proliferation of human fibrosarcoma HT1080 cells, percent of control ([2]; 10 μM): 50.19% of control
- proliferation of human fibrosarcoma HT1080 cells, percent of control ([2]; 15 μM): 49.19% of control
- proliferation of human fibrosarcoma HT1080 cells, percent of control ([2]; 20 μM): 46.81% of control
- activity at 1.2 µM [3]: 99.8%
- activity at 2.5 µM [3]: 99.8%
- activity at 5 µM [3]: 105%
- activity at 7.5 µM [3]: 106%
- activity at 10 µM [3]: 108%
- activity at 15 µM [3]: 99.2%
- activity at 20 µM [3]: 79.9%

SMILES: Cc1cc(Cl)ccc1OC1=CC(=O)c2ccccc2C1=O [Analog F07, 2-(4-chloro-2-methylphenoxy)-1,4-naphthoquinone]
- human SKBR-3 cell proliferation, percent of control ([1]; 1.2 μM): 143.50% of control
- human SKBR-3 cell proliferation, percent of control ([1]; 2.5 μM): 160.12% of control
- human SKBR-3 cell proliferation, percent of control ([1]; 5 μM): 131.48% of control
- human SKBR-3 cell proliferation, percent of control ([1]; 7.5 μM): 68.35% of control
- human SKBR-3 cell proliferation, percent of control ([1]; 10 μM): 12.78% of control
- human SKBR-3 cell proliferation, percent of control ([1]; 15 μM): 2.70% of control
- human SKBR-3 cell proliferation, percent of control ([1]; 20 μM): 6.29% of control
- proliferation of human fibrosarcoma HT1080 cells, percent of control ([2]; 1.2 μM): 85.35% of control
- proliferation of human fibrosarcoma HT1080 cells, percent of control ([2]; 2.5 μM): 89.16% of control
- proliferation of human fibrosarcoma HT1080 cells, percent of control ([2]; 5 μM): 76.04% of control
- proliferation of human fibrosarcoma HT1080 cells, percent of control ([2]; 7.5 μM): 68.43% of control
- proliferation of human fibrosarcoma HT1080 cells, percent of control ([2]; 10 μM): 69.89% of control
- proliferation of human fibrosarcoma HT1080 cells, percent of control ([2]; 15 μM): 67.89% of control
- proliferation of human fibrosarcoma HT1080 cells, percent of control ([2]; 20 μM): 69.50% of control
- activity at 2 µM [3]: 101%
- activity at 3 µM [3]: 102%
- activity at 4 µM [3]: 101%
- activity at 5 µM [3]: 96%
- activity at 6 µM [3]: 88.4%
- activity at 7 µM [3]: 81.8%
- activity at 10 µM [3]: 36.3%
- activity at 15 µM [3]: 19.4%
- activity at 25 µM [3]: 12.5%

SMILES: O=C1C=C(Nc2ccccc2)C(=O)c2ccccc21 [Analog F35, 2-(phenylamino)naphthalene-1,4-dione]
- in vivo efficiency of combination treatment with castration compared with plumbagin and castration (FIG. 9) [4]: more efficient in vivo than treatment with plumbagin and castration

SMILES: COc1cccc2c1C(=O)C=CC2=O [Analog F51, 5-methoxy-1,4-naphthoquinone]
- in vivo efficiency of combination treatment with castration compared with plumbagin and castration (FIG. 9) [4]: more efficient in vivo than treatment with plumbagin and castration
- activity at 1 µM ([3]; 1 μM): 103%
- activity at 2 µM [3]: 104%
- activity at 3 µM [3]: 105%
- activity at 4 µM [3]: 105%
- activity at 5 µM [3]: 103%
- activity at 6 µM [3]: 94%
- activity at 7 µM [3]: 85.7%
- activity at 10 µM [3]: 43.4%
- activity at 25 µM [3]: 9.58%
- activity at 50 µM ([3]; 50 μM): 10.3%
